Source: PubChem BioAssay (NCI)
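Step 1: Grow cells in 96-well plates. Step 2: Expose to compound for 48 hours at 5 concentrations. Step 3: Interpolate endpoints linearly; if unreached, use highest concentration. The concentration for 50% growth inhibition is given as GI50. TGI: total growth inhibition.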

Legend:
Test in all cases: DTP human tumour cell line panel, 48 h
DMS 114 small cell lung = system: DMS 114 small cell lung
HOP-18 NSCLC = system: HOP-18 NSCLC
LXFL 529 NSCLC = system: LXFL 529 NSCLC
M19-MEL melanoma = system: M19-MEL melanoma
XF 498 CNS = system: XF 498 CNS
RXF-631 renal = system: RXF-631 renal
MDA-N = system: MDA-N

Row | Structure (SMILES) | TGI (DMS 114 small cell lung) | TGI (HOP-18 NSCLC) | TGI (LXFL 529 NSCLC) | TGI (M19-MEL melanoma) | TGI (XF 498 CNS) | TGI (RXF-631 renal) | TGI (MDA-N) | GI50 (MDA-N)
1 | CCOc1ccc(NCC2CC/C(=C\c3ccc(Cl)cc3)C2=O)cc1 (stereo not drawn) | > 58.9 µM | 54.6 µM | 25.8 µM | > 58.6 µM | 37.1 µM | – | – | –
2 | O=C1c2cccc3c(Cl)ccc(c23)C(=O)N1CCCN1CCN(CCCN2C(=O)c3cccc4c(Cl)ccc(c34)C2=O)CC1 | > 100 µM | > 100 µM | > 100 µM | – | > 100 µM | > 100 µM | – | –
3 | CCC(C)c1cccc(C)c1NC(=O)C(=O)Cc1nc2ccccc2s1 (stereo not drawn) | > 100 µM | > 100 µM | > 100 µM | > 100 µM | > 100 µM | – | – | –
4 | O=C1CCCC(O)=C1SC1=C(O)CCCC1=O | – | > 100 µM | – | > 100 µM | – | > 100 µM | – | –
5 | O=C1CCNC(=O)NC1 | > 100 µM | > 100 µM | > 100 µM | > 100 µM | > 100 µM | > 100 µM | – | –
6 | COC1C(CO)OC(n2c3c(Cl)cccc3c3c4c(c5c6cccc(Cl)c6[nH]c5c32)C(=O)NC4=O)C(O)C1O (stereo not drawn) | > 100 µM | – | > 100 µM | 0.898 µM | 0.931 µM | 84.3 µM | 3.15 µM | –
7 | CN(C)c1ccc2cc3ccc(N(C)C)cc3nc2c1 | – | – | – | – | – | – | 3.03 µM | –
8 | NC(CCc1ncc(-c2ccccc2)s1)C(=O)O (stereo not drawn) | > 100 µM | > 100 µM | > 100 µM | – | – | > 100 µM | – | –
9 | CNc1ccc([N+](=O)[O-])c2c(NCCCN(C)C)ccnc12 | > 100 µM | – | – | > 100 µM | > 100 µM | – | – | –
10 | CN(C(=O)C12C3C4C1C1C2C3C41C(O)C(C)(C)C)C(C)(C)C (stereo not drawn) | > 100 µM | – | > 100 µM | > 100 µM | > 100 µM | > 100 µM | – | –
11 | CC[C@H]1CN(C)[C@H]2Cc3c([nH]c4ccccc34)C(=O)C[C@H]1C2C(=O)OC (stereo partly drawn) | – | – | – | – | – | – | > 100 µM | –
12 | CC(O)C(NC(=O)c1ccccc1)C(=O)N(Cc1ccccc1)Cc1ccccc1 (stereo not drawn) | > 100 µM | > 100 µM | > 100 µM | > 100 µM | > 100 µM | > 100 µM | – | –
13 | O=C1/C(=C/c2ccc(Cl)cc2)CCC1CN1CCOCC1 (stereo not drawn) | 70.2 µM | 29.7 µM | 6.88 µM | – | 4.97 µM | > 62.5 µM | 18.4 µM | –
14 | Cc1cccc(C(C)C)c1NC(=O)CCl | 50 µM | > 100 µM | > 100 µM | > 100 µM | – | – | – | –
15 | CCCC(C)c1c(Cl)nc(Cl)nc1Cl (stereo not drawn) | – | – | – | – | – | – | 21 µM | –
16 | O=C(Oc1ccc2c(-c3ccccc3)c(C(=O)Nc3ccc(Cl)cc3)c(=O)oc2c1)c1ccccc1 | > 100 µM | > 100 µM | – | > 100 µM | > 100 µM | – | – | –

Row | Structure (SMILES) | TGI (DMS 114 small cell lung) | TGI (HOP-18 NSCLC) | TGI (LXFL 529 NSCLC) | TGI (M19-MEL melanoma) | TGI (XF 498 CNS) | TGI (RXF-631 renal) | TGI (MDA-N) | GI50 (MDA-N)
17 | C=C1CCC2C(C)(CO)C(O)CCC2(C)C1C/C=C1/CCOC1=O (stereo not drawn) | – | > 100 µM | > 100 µM | > 100 µM | – | – | – | –
18 | O=S1c2ccccc2NC(c2ccc3ccccc3c2)CC1c1ccccc1 (stereo not drawn) | – | > 100 µM | 30.5 µM | 43.3 µM | 52.8 µM | – | – | –
19 | CN(C)CCNC(=O)c1c2ccccc2cc2ccccc12 | > 100 µM | > 100 µM | 80.8 µM | > 100 µM | 44.8 µM | – | – | –
20 | CC(C)C[CH2][Ge]([CH2]CC(C)C)([CH2]CC(C)C)[CH2]CC(C)C | – | – | – | – | – | – | > 100 µM | > 100 µM
21 | COc1ccc(N=Nc2c(-c3ccccc3)nn(C(=O)CC(=O)Nc3ccccc3Cl)c2-c2ccccc2)cc1 | > 100 µM | > 100 µM | > 100 µM | > 100 µM | – | > 100 µM | – | –
22 | CN1C(=O)CCC1c1ccc2c(c1)oc(=O)n2C (stereo not drawn) | > 100 µM | > 100 µM | > 100 µM | > 100 µM | > 100 µM | – | – | –
23 | O=c1ccn(C2(CO)C=C(CO)C(O)C2O)c(=O)[nH]1 (stereo not drawn) | > 25.7 µM | > 25.7 µM | > 25.7 µM | > 25.7 µM | – | > 25.7 µM | – | –
24 | Cc1ccc(/C=C/C(=O)c2ccc([N+](=O)[O-])cc2)cc1 | – | > 100 µM | > 100 µM | > 100 µM | > 100 µM | > 100 µM | – | –
25 | ClC1c2ccccc2C2(c3ccccc3)OOC1(c1ccccc1)O2 (stereo not drawn) | 0.725 µM | – | – | – | – | – | – | –
26 | CC(C)CN1CC(C)C(=O)NC1=O (stereo not drawn) | > 100 µM | – | > 100 µM | > 100 µM | > 100 µM | – | – | –
27 | CCOc1cc2c(=O)oc3c(OC)ccc4ccc(c1OC)c2c43 | – | – | – | – | – | – | > 100 µM | –
28 | N#Cc1cc([N+](=O)[O-])ccc1NC(=O)C(=O)C(C(=O)c1ccc2ccccc2c1)C1OCc2ccccc21 (stereo not drawn) | 29.7 µM | – | 13.7 µM | 31.6 µM | – | 37.5 µM | – | –
29 | CN(C)C(=S)/N=c1\ss/c(=N\C(=S)N(C)C)n1Cc1ccco1 | > 100 µM | > 100 µM | > 100 µM | > 100 µM | – | – | – | –
30 | COc1ccc(OC(C)C(=O)O)c2c1CCCC2=O (stereo not drawn) | > 100 µM | – | > 100 µM | > 100 µM | > 100 µM | – | – | –
31 | CC#CC#C/C=C1\C=CC2(OC=CC2OC(C)=O)O1 (stereo not drawn) | 45.6 µM | – | 32.2 µM | – | 37.7 µM | 33.1 µM | 30.1 µM | –
32 | Cc1cn([C@H]2C[C@H](O)[C@@H](CO)O2)c(=O)nc1N | – | – | – | – | – | – | > 100 µM | –
